Results reported in US20240101548A1, “HYDROXAMATE COMPOUND, PREPARATION METHOD THEREFOR AND APPLICATION THEREOF” (SHENZHEN CHIPSCREEN BIOSCIENCES CO., LTD., priority 2020, published 2024).
Where two headings read alike, the source gives them in different places.

Tested on: IL-10-induced JAK1/TYK2 signal pathway
Test: IL-10-induced JAK1/TYK2 signal pathway STAT3-Luc reporter gene assay in U2OS cells
Type: cell-based, human
Details: Homo sapiens, read-out: Half inhibition dose (IC50) on IL-10-induced JAK1/TYK2 signal pathway
Summary of the method: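 Luciferase read-out (560 nm) corrected by GFP signal (Ex485/Em520) gives IL-10 pathway activity, and IC50 is derived from inhibition rates. Cells were U2OS transfected with IL-10R1 plus STAT3-Luc reporter, pretreated 6 h with 0.1–300 nM compound, then stimulated 24 h with IL-10 at 10 ng/mL.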

[1] = U2OS, U2OS cells, STAT3-Luc reporter, IL-10 10 ng/mL
[2] = U2OS cells, STAT3-Luc reporter, IL-10 10 ng/mL

Compound | IC50 [1] | IC50 [2] | other results
CCONC(=O)c1cnc(Nc2cc(C)nc(C)n2)cc1Nc1cccc(-c2ncccn2)c1OC [Example 212] |  |  | IC50 (U2OS): 0.271 nM
CCONC(=O)c1cnc(NC(=O)C2CC2)cc1Nc1cccc(-c2ncc(Cl)cn2)c1OC [Example 219, 4-((3-(5-chloropyrimidin-2-yl)-2-methoxyphenyl)amino)-6-(cyclopropylcarboxamido)-N-ethoxy nicotinamide] | 1.09 nM |  | 
CCONC(=O)c1cnc(Nc2cc(C)nc(C)n2)cc1Nc1cc(F)cc(-c2ncccn2)c1OC [Example 215, 6-((2,6-dimethylpyrimidin-4-yl)amino)-N-ethoxy-4-((5-fluoro-2-methoxy-3-(pyrimidin-2-yl)phenyl)amino)nicotinamide] | 0.102 nM |  | 
CCONC(=O)c1cnc(Nc2cc(C)nc(C)n2)cc1Nc1ccc(C(F)(F)F)cc1N(C)S(C)(=O)=O [Example 202, 6-((2,6-dimethylpyrimidin-4-yl)amino)-N-ethoxy-4-((2-(N-methylmethanesulfonamido)-4-(trifluoromethyl)phenyl)amino)nicotinamide] |  | 0.412 nM | 
CCONC(=O)c1cnc(Nc2cc(C)nc(C)n2)cc1Nc1cccc(-c2ncc(C)cn2)c1OC [Example 238, 6-((2,6-dimethylpyrimidin-4-yl)amino)-N-ethoxy-4-((2-methoxy-3-(5-methylpyrimidin-2-yl)phenyl)amino)nicotinamide] |  | 0.168 nM | 
